Data as given in PMC5218480 (PLoS ONE, 2017).

Test system: MV-4-11 cells
Test: Gene expression microarray analysis (Affymetrix PrimeView) and GSEA
Assay type: cell-based, human
Set-up: RFU PODN (11730768_x_at) / Fold change /veh PODN (11730768_x_at) / RFU LINC00158 (11744669_a_at) / Fold change /veh LINC00158 (11744669_a_at) / RFU DUSP10 (11751237_a_at) / Fold change /veh DUSP10 (11751237_a_at) / RFU ID3 (11757404_x_at) / Fold change /veh ID3 (11757404_x_at) / RFU PLEKHG5 (11737974_s_at) / Fold change /veh PLEKHG5 (11737974_s_at) / RFU LRRC4B (11730491_at) / Fold change /veh LRRC4B (11730491_at) / RFU GIMAP4 (11747438_a_at) / Fold change /veh GIMAP4 (11747438_a_at) / RFU KRT8 (11758183_x_at) / Fold change /veh KRT8 (11758183_x_at) / RFU CNN1 (11734310_a_at) / Fold change /veh CNN1 (11734310_a_at) / RFU VPS37D (11726825_at) / Fold change /veh VPS37D (11726825_at) / RFU C10orf10 (11716522_x_at) / Fold change /veh C10orf10 (11716522_x_at) / RFU KIR2DL2 /// KIR2DL4 /// KIR2DL5A /// KIR2DL5B /// KIR2DS1 /// KIR2DS2 /// KIR2DS3 /// KIR2DS4 /// KIR3DL3 /// KIR3DL3 /// KIR3DS1 (11738374_at) / Fold change /veh KIR2DL2 /// KIR2DL4 /// KIR2DL5A /// KIR2DL5B /// KIR2DS1 /// KIR2DS2 /// KIR2DS3 /// KIR2DS4 /// KIR3DL3 /// KIR3DL3 /// KIR3DS1 (11738374_at) / RFU C1QL1 (11718748_at) / Fold change /veh C1QL1 (11718748_at) / RFU TMPRSS4 (11747572_a_at) / Fold change /veh TMPRSS4 (11747572_a_at) / RFU HAMP (11756126_x_at) / Fold change /veh HAMP (11756126_x_at) / RFU RNFT2 (11725882_a_at) / Fold change /veh RNFT2 (11725882_a_at) / RFU NR4A2 (11747474_a_at) / Fold change /veh NR4A2 (11747474_a_at) / RFU ABCC12 (11746883_a_at) / Fold change /veh ABCC12 (11746883_a_at) / RFU TMEM136 (11760407_x_at) / Fold change /veh TMEM136 (11760407_x_at) / RFU CLDN22 /// WWC2 (11732394_at) / Fold change /veh CLDN22 /// WWC2 (11732394_at) / RFU HLA-DPB1 (11760878_x_at) / Fold change /veh HLA-DPB1 (11760878_x_at) / RFU SPINT1 (11716480_a_at) / Fold change /veh SPINT1 (11716480_a_at) / RFU GAP43 (11754022_s_at) / Fold change /veh GAP43 (11754022_s_at) / RFU A4GNT (11735810_at) / Fold change /veh A4GNT (11735810_at) / RFU PRB3 (11715151_x_at) / Fold change /veh PRB3 (11715151_x_at) / RFU TUBB4B (11761932_at) / Fold change /veh TUBB4B (11761932_at) / RFU CAPN14 (11732068_a_at) / Fold change /veh CAPN14 (11732068_a_at) / RFU TMCC2 (11721928_a_at) / Fold change /veh TMCC2 (11721928_a_at) / RFU IRGQ (11745062_a_at) / Fold change /veh IRGQ (11745062_a_at) / RFU FAM174B (11720279_a_at) / Fold change /veh FAM174B (11720279_a_at) / RFU TMPRSS4 (11748680_a_at) / Fold change /veh TMPRSS4 (11748680_a_at) / RFU FAM212B (11763350_a_at) / Fold change /veh FAM212B (11763350_a_at) / RFU PLEKHG5 (11743358_a_at) / Fold change /veh PLEKHG5 (11743358_a_at) / RFU ZSCAN30 (11745921_a_at) / Fold change /veh ZSCAN30 (11745921_a_at) / RFU CMKLR1 (11741424_a_at) / Fold change /veh CMKLR1 (11741424_a_at) / RFU LOC101060620 /// MAPK8IP1 (11723275_at) / Fold change /veh LOC101060620 /// MAPK8IP1 (11723275_at) / RFU SPTSSB (11747773_x_at) / Fold change /veh SPTSSB (11747773_x_at) / RFU PRSS12 (11739890_at) / Fold change /veh PRSS12 (11739890_at) / RFU BIN1 (11741810_x_at) / Fold change /veh BIN1 (11741810_x_at) / RFU WNT11 (11732464_a_at) / Fold change /veh WNT11 (11732464_a_at) / RFU C10orf10 (11716521_a_at) / Fold change /veh C10orf10 (11716521_a_at) / RFU C5orf56 (11738089_at) / Fold change /veh C5orf56 (11738089_at) / RFU CYB561 (11721691_x_at) / Fold change /veh CYB561 (11721691_x_at) / RFU ANKRD19P (11752326_a_at) / Fold change /veh ANKRD19P (11752326_a_at) / RFU OR2T12 /// OR2T33 /// OR2T8 (11738714_s_at) / Fold change /veh OR2T12 /// OR2T33 /// OR2T8 (11738714_s_at) / RFU VCAN (11748164_a_at) / Fold change /veh VCAN (11748164_a_at) / RFU JSRP1 (11732532_at) / Fold change /veh JSRP1 (11732532_at) / RFU KRTAP10-11 (11738290_x_at) / Fold change /veh KRTAP10-11 (11738290_x_at) / RFU MYO3A (11730013_a_at) / Fold change /veh MYO3A (11730013_a_at) / RFU EBF3 (11725865_a_at) / Fold change /veh EBF3 (11725865_a_at) / RFU CAMK2N1 (11719241_x_at) / Fold change /veh CAMK2N1 (11719241_x_at) / RFU C5orf56 (11738088_a_at) / Fold change /veh C5orf56 (11738088_a_at) / RFU OLFML3 (11715873_a_at) / Fold change /veh OLFML3 (11715873_a_at) / RFU LOC100653217 /// NTM (11731650_a_at) / Fold change /veh LOC100653217 /// NTM (11731650_a_at) / RFU MAPK11 (11762145_a_at) / Fold change /veh MAPK11 (11762145_a_at) / RFU FIZ1 (11724087_x_at) / Fold change /veh FIZ1 (11724087_x_at) / RFU OASL (11726364_x_at) / Fold change /veh OASL (11726364_x_at) / RFU SOX15 (11748057_x_at) / Fold change /veh SOX15 (11748057_x_at) / RFU CD79A (11719716_a_at) / Fold change /veh CD79A (11719716_a_at) / RFU HIST1H1D (11736915_at) / Fold change /veh HIST1H1D (11736915_at) / RFU CASKIN2 (11723855_a_at) / Fold change /veh CASKIN2 (11723855_a_at) / RFU LOC730098 (11760151_x_at) / Fold change /veh LOC730098 (11760151_x_at) / RFU OR4N2 (11742367_at) / Fold change /veh OR4N2 (11742367_at) / RFU PRRT2 (11749266_a_at) / Fold change /veh PRRT2 (11749266_a_at) / RFU SNX32 (11753110_a_at) / Fold change /veh SNX32 (11753110_a_at) / RFU CDHR5 (11726645_a_at) / Fold change /veh CDHR5 (11726645_a_at) / RFU RCAN1 (11760418_a_at) / Fold change /veh RCAN1 (11760418_a_at) / RFU FAM167A (11723789_a_at) / Fold change /veh FAM167A (11723789_a_at) / RFU FAM26E (11764081_at) / Fold change /veh FAM26E (11764081_at) / RFU ISYNA1 (11749810_s_at) / Fold change /veh ISYNA1 (11749810_s_at) / RFU ACY1 (11761880_at) / Fold change /veh ACY1 (11761880_at) / RFU 11764098_at / Fold change /veh 11764098_at / RFU SAMD14 (11745864_x_at) / Fold change /veh SAMD14 (11745864_x_at) / RFU NPB (11741838_a_at) / Fold change /veh NPB (11741838_a_at) / RFU TMPRSS6 (11731388_a_at) / Fold change /veh TMPRSS6 (11731388_a_at) / RFU KRTAP10-2 (11738614_at) / Fold change /veh KRTAP10-2 (11738614_at) / RFU ARHGAP8 /// PRR5-ARHGAP8 (11727945_x_at) / Fold change /veh ARHGAP8 /// PRR5-ARHGAP8 (11727945_x_at) / RFU KRTAP5-7 /// NADSYN1 (11734609_at) / Fold change /veh KRTAP5-7 /// NADSYN1 (11734609_at) / RFU RASL12 (11751679_a_at) / Fold change /veh RASL12 (11751679_a_at) / RFU CDKN2B (11736163_a_at) / Fold change /veh CDKN2B (11736163_a_at) / RFU PRF1 (11729649_at) / Fold change /veh PRF1 (11729649_at) / RFU, ZNF638 /// ZNF638-IT1 / Fold change vs veh, ZNF638 /// ZNF638-IT1 / RFU, PANK3 / Fold change vs veh, PANK3 / RFU, SH3YL1 / Fold change vs veh, SH3YL1 / RFU, ZEB2 / Fold change vs veh, ZEB2 / RFU, NRIP1 / Fold change vs veh, NRIP1 / RFU, PTTG1IP / Fold change vs veh, PTTG1IP / RFU, CAPN2 / Fold change vs veh, CAPN2 / RFU, MED14 / Fold change vs veh, MED14 / RFU, SNORA58 / Fold change vs veh, SNORA58 / RFU, C1orf63 / Fold change vs veh, C1orf63 / RFU, LRRFIP1 / Fold change vs veh, LRRFIP1 / RFU, NDUFAF7 / Fold change vs veh, NDUFAF7 / RFU, SLC12A2 / Fold change vs veh, SLC12A2 / RFU, IBTK / Fold change vs veh, IBTK / RFU, ESF1 / Fold change vs veh, ESF1 / Fold change vs veh, TMEM50B / RFU, TAOK1 / Fold change vs veh, TAOK1 / RFU, ACBD3 / Fold change vs veh, ACBD3 / RFU, TMA16 / Fold change vs veh, TMA16 / RFU, RWDD3 / Fold change vs veh, RWDD3 / RFU, BCAT1 / Fold change vs veh, BCAT1 / RFU, EDEM3 / Fold change vs veh, EDEM3 / RFU, TMEM33 / Fold change vs veh, TMEM33 / RFU, WDR75 / Fold change vs veh, WDR75 / RFU, AHCTF1 / Fold change vs veh, AHCTF1 / RFU, TFRC / Fold change vs veh, TFRC / RFU, ZDHHC17 / Fold change vs veh, ZDHHC17 / RFU, NOM1 / Fold change vs veh, NOM1 / RFU, ARL8B / Fold change vs veh, ARL8B / RFU, ZBTB11 / Fold change vs veh, ZBTB11 / RFU, TAMM41 / Fold change vs veh, TAMM41 / RFU, KIAA1704 /// LOC100996395 / Fold change vs veh, KIAA1704 /// LOC100996395 / RFU, ING1 / Fold change vs veh, ING1 / RFU, TRMT61B / Fold change vs veh, TRMT61B / RFU, FUBP3 / Fold change vs veh, FUBP3 / RFU, TP53 / Fold change vs veh, TP53 / RFU, TNKS2 / Fold change vs veh, TNKS2 / RFU, ZFP14 / Fold change vs veh, ZFP14 / RFU, ACTR2 / Fold change vs veh, ACTR2 / RFU, PPP3R1 / Fold change vs veh, PPP3R1 / RFU, PIK3R1 / Fold change vs veh, PIK3R1 / RFU, HNRNPA1 / Fold change vs veh, HNRNPA1 / RFU, RNF170 / Fold change vs veh, RNF170 / RFU, ZNF28 / Fold change vs veh, ZNF28 / RFU, RNGTT / Fold change vs veh, RNGTT / RFU, OGT / Fold change vs veh, OGT / RFU, BRD1 / Fold change vs veh, BRD1 / RFU, MARS / Fold change vs veh, MARS / RFU, ZNF655 / Fold change vs veh, ZNF655 / RFU, FAHD1 / Fold change vs veh, FAHD1 / RFU, BDP1 / Fold change vs veh, BDP1 / RFU, LRRCC1 / Fold change vs veh, LRRCC1 / RFU, ARID1A / Fold change vs veh, ARID1A / RFU, ZNF146 / Fold change vs veh, ZNF146 / RFU, ZNF330 / Fold change vs veh, ZNF330 / RFU, GPN3 / Fold change vs veh, GPN3 / RFU, C9orf123 / Fold change vs veh, C9orf123 / RFU, N4BP2L2 / Fold change vs veh, N4BP2L2 / RFU, ARFIP1 / Fold change vs veh, ARFIP1 / RFU, FAM179B / Fold change vs veh, FAM179B / RFU, BCL10 / Fold change vs veh, BCL10 / RFU, UHRF1BP1L / Fold change vs veh, UHRF1BP1L / RFU, BET1 / Fold change vs veh, BET1 / RFU, CNOT2 / Fold change vs veh, CNOT2 / RFU, ZNF268 / Fold change vs veh, ZNF268 / Fold change vs veh, ZNF507 / RFU, DGCR2 / Fold change vs veh, DGCR2 / RFU, WDSUB1 / Fold change vs veh, WDSUB1 / Fold change vs veh, HSP90B1 /// MIR3652 / RFU, ADSS / Fold change vs veh, ADSS / RFU, GK / Fold change vs veh, GK / RFU, ZNF148 / Fold change vs veh, ZNF148 / RFU, TAF9 / Fold change vs veh, TAF9 / RFU, SLC1A5 / Fold change vs veh, SLC1A5 / RFU, SLMO2 / Fold change vs veh, SLMO2 / RFU, ABCC4 / Fold change vs veh, ABCC4 / RFU, LOC101060439 /// RAP1B / Fold change vs veh, LOC101060439 /// RAP1B / RFU, RFX7 / Fold change vs veh, RFX7 / RFU, GTPBP10 / Fold change vs veh, GTPBP10 / RFU, CNEP1R1 / Fold change vs veh, CNEP1R1 / RFU, BIVM-ERCC5 /// ERCC5 / Fold change vs veh, BIVM-ERCC5 /// ERCC5 / RFU, ILF3 / Fold change vs veh, ILF3 / RFU 11762660_at / Fold change /veh 11762660_at / RFU VCAN (11757783_s_at) / Fold change /veh VCAN (11757783_s_at) / RFU DDX43 (11728927_at) / Fold change /veh DDX43 (11728927_at) / RFU KRT8 (11758188_x_at) / Fold change /veh KRT8 (11758188_x_at) / RFU NKD1 (11759106_at) / Fold change /veh NKD1 (11759106_at) / RFU SRD5A1 (11742802_a_at) / Fold change /veh SRD5A1 (11742802_a_at) / RFU TPSAB1 /// TPSB2 (11721975_s_at) / Fold change /veh TPSAB1 /// TPSB2 (11721975_s_at) / RFU GSTM3 (11746129_a_at) / Fold change /veh GSTM3 (11746129_a_at) / RFU IL23R (11737362_x_at) / Fold change /veh IL23R (11737362_x_at) / RFU TMEM51 (11727254_a_at) / Fold change /veh TMEM51 (11727254_a_at) / RFU PIWIL2 (11732686_x_at) / Fold change /veh PIWIL2 (11732686_x_at) / RFU ORM1 (11744905_x_at) / Fold change /veh ORM1 (11744905_x_at) / RFU CCDC152 (11743942_at) / Fold change /veh CCDC152 (11743942_at) / RFU ECM1 (11717891_a_at) / Fold change /veh ECM1 (11717891_a_at) / RFU IL23R (11748794_a_at) / Fold change /veh IL23R (11748794_a_at) / RFU TNFAIP8L3 (11732012_x_at) / Fold change /veh TNFAIP8L3 (11732012_x_at) / RFU MBOAT4 (11741988_at) / Fold change /veh MBOAT4 (11741988_at) / RFU 11764193_at / Fold change /veh 11764193_at / RFU TMEM53 (11763286_at) / Fold change /veh TMEM53 (11763286_at) / RFU MAGEB2 (11727129_at) / Fold change /veh MAGEB2 (11727129_at) / RFU TMEM200A (11744735_a_at) / Fold change /veh TMEM200A (11744735_a_at) / RFU CCDC152 (11751479_a_at) / Fold change /veh CCDC152 (11751479_a_at) / RFU FAM211A (11726209_a_at) / Fold change /veh FAM211A (11726209_a_at) / RFU RGS16 (11746705_a_at) / Fold change /veh RGS16 (11746705_a_at) / RFU VCAN (11755009_s_at) / Fold change /veh VCAN (11755009_s_at) / RFU RHOB (11743442_s_at) / Fold change /veh RHOB (11743442_s_at) / RFU RGS16 (11720943_a_at) / Fold change /veh RGS16 (11720943_a_at) / RFU RGS16 (11720944_at) / Fold change /veh RGS16 (11720944_at) / RFU, VPS4B / Fold change vs veh, VPS4B / RFU, CREB1 / Fold change vs veh, CREB1 / RFU, DNAJC13 / Fold change vs veh, DNAJC13 / RFU, GNAQ / Fold change vs veh, GNAQ / RFU, CDK5R1 / Fold change vs veh, CDK5R1 / RFU, ZRANB3 / Fold change vs veh, ZRANB3 / RFU, CUL4A / Fold change vs veh, CUL4A / RFU, CCNY / Fold change vs veh, CCNY / RFU, UFL1 / Fold change vs veh, UFL1 / RFU, COG3 / Fold change vs veh, COG3 / RFU, DIAPH2 / Fold change vs veh, DIAPH2 / RFU, SKA2 / Fold change vs veh, SKA2 / RFU, AFF3 / Fold change vs veh, AFF3 / RFU, LMF1 / Fold change vs veh, LMF1 / RFU, IPO11 / Fold change vs veh, IPO11 / RFU, DFFB / Fold change vs veh, DFFB / RFU, FOXP1 / Fold change vs veh, FOXP1 / RFU, CARD8 / Fold change vs veh, CARD8 / RFU, STRN3 / Fold change vs veh, STRN3 / RFU, ADK / Fold change vs veh, ADK / RFU, RASSF2 / Fold change vs veh, RASSF2 / RFU, WIPF1 / Fold change vs veh, WIPF1 / RFU, LARP1B / Fold change vs veh, LARP1B / RFU, RASA1 / Fold change vs veh, RASA1 / RFU, RB1 / Fold change vs veh, RB1 / RFU, PPFIA1 / Fold change vs veh, PPFIA1 / RFU, MAT2A / Fold change vs veh, MAT2A / RFU, CCT5 / Fold change vs veh, CCT5 / RFU, WDR92 / Fold change vs veh, WDR92 / RFU, CUX1 / Fold change vs veh, CUX1 / RFU, TTC7A / Fold change vs veh, TTC7A / RFU, TMEM135 / Fold change vs veh, TMEM135 / RFU, DEPTOR / Fold change vs veh, DEPTOR / RFU, CPM / Fold change vs veh, CPM / RFU, DNAJB6 / Fold change vs veh, DNAJB6 / RFU, CACNA2D3 / Fold change vs veh, CACNA2D3 / RFU, DTX4 / Fold change vs veh, DTX4 / RFU, TFCP2 / Fold change vs veh, TFCP2 / RFU, GMCL1 /// GMCL1P1 / Fold change vs veh, GMCL1 /// GMCL1P1 / RFU, AEBP2 / Fold change vs veh, AEBP2 / RFU, SNHG1 /// SNORD22 /// SNORD25 /// SNORD26 /// SNORD27 /// SNORD28 /// SNORD29 /// SNORD31 / Fold change vs veh, SNHG1 /// SNORD22 /// SNORD25 /// SNORD26 /// SNORD27 /// SNORD28 /// SNORD29 /// SNORD31 / Fold change (Aza/veh), C12orf56 (ProbeSet 11735607_a_at) / Fold change (ACY-1035/veh), C12orf56 (ProbeSet 11735607_a_at) / Fold change (Aza/veh), FGFR1OP (ProbeSet 11751329_s_at) / Fold change (ACY-1035/veh), FGFR1OP (ProbeSet 11751329_s_at) / Fold change (Aza/veh), VPS36 (ProbeSet 11739960_a_at) / Fold change (ACY-1035/veh), VPS36 (ProbeSet 11739960_a_at) / RFU SYPL1 (11715823_x_at) / Fold change /veh SYPL1 (11715823_x_at) / RFU IGFBP7 (11715501_s_at) / Fold change /veh IGFBP7 (11715501_s_at) / RFU REEP3 (11722064_at) / Fold change /veh REEP3 (11722064_at) / RFU IGLL1 (11728026_x_at) / Fold change /veh IGLL1 (11728026_x_at): dose or concentration left out as unconfirmed
Settings: MV-4-11 cells, 48 hours

## Nc1ncn([C@@H]2O[C@H](CO)[C@@H](O)[C@H]2O)c(=O)n1 [azacitidine]
  Fold change /veh NKD1 (11759106_at): 1.33
